US20250011881A1, “MYC-HSF1 DUAL AMPLIFICATION AS A BIOMARKER FOR CANCER TREATMENT” (The Trustees of Indiana University, priority 2023, published 2025)
“And” between values parts separate entries of the source, which are not always exact repeats. Identical values can stand only once. Counter-ions that a name gives are not always drawn.

tested on: ovarian cancer cells with (OVCAR8, OVCAR4) or without (OVSAHO, CAOV3) MYC-HSF1 amplification; assay: Epigenetic inhibitor drug screen, cell viability (Cell Titer Blue); assay type: cell-based; conditions: not given

| Compound | Non Amp - AMP (POC) 10 uM [POC] |
| --- | --- |
| CCS(=O)(=O)Nc1ccc2c(c1)/C(=C(/Nc1ccc(CN3CCCCC3)cc1)c1ccccc1)C(=O)N2 [Hesperadin] | 39.85 |
| CC(C)(C)c1nc2c3cc[nH]c(=O)c3c3cc(F)ccc3c2[nH]1 [Pyridone 6] | −0.4008 |
| (−)-Epigallocatechin gallate [(−)-Epigallocatechin gallate (EGCG)] | 4.98 |
| CCCCCCCCCCCCC/C=C/[C@@H](O)[C@@H](N)CO [D-erythro-Sphingosine (synthetic), D-erythro-Sphingosine] | 2.713 |
| [NH2][Pt]1([NH2])[O]CC(=O)[O]1 [Nedaplatin] | −10.66 |

same assay, conditions: 10 µM

| Compound | Non Amp - AMP (POC) 10 uM [POC] |
| --- | --- |
| COc1ccc(Cn2ccc3ccc(C(=O)NO)cc32)cc1 [PCI 34051] | −4.834 |

same assay, conditions: 10 uM, 48 hrs; average relative cell viability (vs 1% DMSO) of non-amplified cells (OVSAHO, CAOV3) minus that of MYC-HSF1 amplified cells (OVCAR8, OVCAR4); positive = greater response in amplified cells

| Compound | Non Amp - AMP (POC) 10 uM [POC] |
| --- | --- |
| C=CC(=O)c1ccc2ccccc2c1 [ZM 449829] | 4.711 |
| O=C(CCCCCCC(=O)Nc1ccc([C@H]2O[C@@H](CSc3nc(-c4ccccc4)c(-c4ccccc4)o3)C[C@@H](c3ccc(CO)cc3)O2)cc1)NO [Tubacin] | −15.59 |
| COc1cc(Nc2ncc3c(n2)-c2ccc(Cl)cc2C(c2c(F)cccc2OC)=NC3)ccc1C(=O)O [MLN8237 (Alisertib), Alisertib] | −25.51 |
| CCc1cccc(CC)c1NC(=O)N1Cc2n[nH]c(NC(=O)c3ccc(N4CCN(C)CC4)cc3)c2C1 [PHA-680632] | −11.28 |
| Cc1nc(-c2cccnc2)sc1C(=O)Nc1ccccc1-c1cn2c(CN3CCOCC3)csc2n1 [SRT2104 (GSK2245840)] | −1.9 |
| C[C@@H]1CC[C@@]2(OC1)O[C@H]1C[C@H]3[C@@H]4CC=C5C[C@@H](O)CC[C@]5(C)[C@H]4CC[C@]3(C)[C@H]1[C@@H]2C [Diosgenin] | 5.646 |
| C[C@@H]1O[C@@H](CC(=O)O)CC2=C1C(=O)c1c(O)cccc1C2=O [Nanaomycin A] | 2.594 |
| COC(=O)[C@]12CCC(C)(C)C[C@H]1[C@H]1C(=O)C=C3[C@@]4(C)C=C(C#N)C(=O)C(C)(C)[C@@H]4CC[C@@]3(C)[C@]1(C)CC2 [Bardoxolone methyl] | 6.087 |
| Cc1cc(Nc2nc(N[C@@H](C)c3ncc(F)cn3)ncc2Cl)[nH]n1 [AZD1480] | 0.4361 |
| Cc1cnc(Nc2ccc(OCCN3CCCC3)cc2)nc1Nc1cccc(S(=O)(=O)NC(C)(C)C)c1 [TG101348 (SAR302503)] | −1.346 |
| CC(C)N(CCCNC(=O)Nc1ccc(C(C)(C)C)cc1)C[C@H]1O[C@@H](n2cc(Br)c3c(N)ncnc32)[C@H](O)[C@@H]1O [SGC 0946] | 1.268 |
| Cl.NC(=O)[C@H](CCCN=C(N)CCl)NC(=O)c1ccccc1 [CI-Amidine (hydrochloride), CI-Amidine] | 5.451 |
| CCS(=O)(=O)N1CC(CC#N)(n2cc(-c3ncnc4[nH]ccc34)cn2)C1 [Baricitinib (LY3009104, INCB028050), Baricitinib] | −2.641 |
| BrC1C(Br)C(Br)C(Br)C(Br)C1Br (stereo not shown) [1,2,3,4,5,6-Hexabromocyclohexane] | −13.98 |
| CCS(=O)(=O)c1cccc(-c2cc(C(=O)NC3CCN(C)CC3)c(C)c3[nH]c4ncc(C)cc4c23)c1 [TAK-901] | 3.351 |
| Cn1ncnc1[C@H]1c2n[nH]c(=O)c3cc(F)cc(c23)N[C@@H]1c1ccc(F)cc1 [BMN 673] | −11.28 |
| O=C(NO)c1ccc(CC(=O)N(CCO)c2ccccc2)cc1 [HPOB] | 18.14 |
| Cn1cc(CCn2cnc(-c3cnn(C)c3)c2-c2ccc(C#N)cc2)cn1 [BAZ2-ICR] | 13.57 |

| Compound | Non Amp - AMP (POC) 10 uM [POC] |
| --- | --- |
| Cc1cc(Nc2cc(N3CCN(C)CC3)nc(/C=C/c3ccccc3)n2)n[nH]1.O=C(O)C(O)C(O)C(=O)O [ENMD-2076 L-(+)-Tartaric acid] | −24.46 |
| CS(=O)(=O)c1ccc(-c2nnc(/C=C/c3nnc(-c4ccc(C#N)cc4)o3)n2-c2ccccc2Cl)nc1 [G007-LK] | −1.13 |
| O=C(O)CNC(=O)C(=O)O [N-Oxalylglycine] | 14.36 |
| N#CCNC(=O)c1ccc(-c2ccnc(Nc3ccc(N4CCOCC4)cc3)n2)cc1 [CYT387] | −4.087 |
| CCCOc1ccc(CCc2nc3cc(-c4c(C)noc4C)ccc3n2CCN2CCOCC2)cc1.Cl [PF-CBP1 hydrochloride] | 9.953 |
| CC(C)(CCCCCC(O)CCCCCC(C)(C)C(=O)O)C(=O)O [ETC-1002] | −2.506 |
| Cc1cc(CN2CCN(c3c(Br)cnc4nc(-c5ccc(N6CCN(C)CC6)cc5)[nH]c34)CC2)no1 [CCT137690] | 9.076 |
| c1ccc([C@@H]2C[C@H]2NC2CCNCC2)cc1 [GSK-LSD1 (hydrochloride)] | 14.88 |
| CN1CCN(c2nc(C3=C(c4c[nH]c5ccccc45)C(=O)NC3=O)c3ccccc3n2)CC1 [Sotrastaurin (AEB071), Sotrastaurin] | 10.63 |
| Cc1cn(CCN2CCN(c3ccccc3-c3cc(C#N)cc(C(=O)NCCCN4CCCC4)c3)CC2)c2ccccc12 [LLY507] | −14.82 |
| O=C(CBr)c1ccc(O)cc1 [PTP Inhibitor I] | −3.586 |
| CCCCCCCCOC(=O)C(O)CCC(=O)O (stereo not shown) [Octyl-a-hydroxyglutarate] | 0.5587 |
| CC(C)c1cccc(=O)c(O)c1 [Hinokitiol] | −6.718 |
| COc1cc(-c2cn(C)c(=O)c3cnccc23)cc(OC)c1CN(C)C [BI-7273] | −8.336 |
| COc1nnc2ccc(N3CCC(c4ccc(OCCN5CCN(C)C(=O)[C@H]5C)cc4)CC3)nn12 [AZD 5153] | 11.52 |
| Oc1cc(O)c2cc(O)c(-c3cc(O)c(O)c(O)c3)[o+]c2c1 [Delphinidin (chloride), Delphinidin] | 9.89 |
| O=C(O)CCNc1cc(N2CCc3ccccc3CC2)nc(-c2cccnc2)n1 [GSK J2] | 0.5701 |
| COc1cc2c(Nc3ccc(NC(=O)c4ccccc4)cc3)ncnc2cc1OCCCN1CCOCC1 [ZM 447439] | 0.5089 |

same assay, conditions: 10 uM, 48 hrs; average relative cell viability (vs 1% DMSO) of non-amplified cells (OVSAHO, CAOV3) minus that of MYC-HSF1 amplified cells (OVCAR8, OVCAR4); positive = greater response in amplified cells; 10 µM

| Compound | Non Amp - AMP (POC) 10 uM |
| --- | --- |
| O=C(O)c1ccc(CN2CCC(CN[C@@H]3C[C@H]3c3ccccc3)CC2)cc1 [GSK2879552] | 13.47 POC and 12.35 POC |
| Cn1c(/C=C/C(=O)NO)ccc1/C=C/C(=O)c1cccc(F)c1 [MC 1568] | −4.947 POC |
| Fc1cc(-c2cccc3ncc(-c4cnn(C5CCNCC5)c4)nc23)cc(F)c1CN1CCOCC1 [NVP-BSK805] | −1.371 POC |
| CNCc1ccc(-c2[nH]c3cc(F)cc4c3c2CCNC4=O)cc1 [Rucaparib (AG-014699, PF-01367338), Rucaparib] | 0.4948 POC |
| N#C/C(=C\c1ccc(-c2cc(Cl)ccc2Cl)o1)C(=O)Nc1cccc2ncccc12 [AGK 2] | 24.17 POC |
| CN(C)Cc1c(C(=O)NCCOc2ccc(C(=O)NO)cc2)oc2ccccc12 [PCI 24781] | 42.57 POC |
| O=C(O)c1ccc(O)c2ncccc12 [IOX1] | 11.45 POC |
| COc1ccc2c(c[n+](C)c3c4cc5c(cc4ccc23)OCO5)c1OC [Chelerythrine] | −18.62 POC |
| CCCCNNC(=O)c1ccc(Br)cc1 [UF010] | 54.18 POC |
| CCOC(=O)CCNc1cc(N2CCc3ccccc3CC2)nc(-c2ccccn2)n1.Cl [GSK J4 HCl] | −10.21 POC |
| Clc1ccc(N/N=C(\c2ccccc2)c2ccccn2)nc1 [JIB-04] | 13.4 POC and 8.34 POC |
| COc1ccc2c(c[n+](C)c3c4cc5c(cc4ccc23)OCO5)c1OC [Chelerythrine Chloride] | −21.5 POC |
| C[S+]([O-])CCCCN=C=S [L-Sulforaphane] | −5.74 POC |
| CCOC(=O)Nc1cc(-c2ccc(C)c(NS(C)(=O)=O)c2)nn2c(C)nnc12 [Bromosporine] | 15.35 POC and 21.43 POC |
| COc1cccc2c1C(=O)c1c(O)c3c(c(O)c1C2=O)C[C@@](O)(C(=O)CO)C[C@@H]3O[C@H]1C[C@H](N)[C@H](O)[C@H](C)O1 [Doxorubicin (Adriamycin) HCl, Doxorubicin] | 3.26 POC |

same assay, conditions: 10 uM, 48 hrs; average relative cell viability (vs 1% DMSO) of non-amplified cells (OVSAHO, CAOV3) minus that of MYC-HSF1 amplified cells (OVCAR8, OVCAR4); positive = greater response in amplified cells; listed as AGK2, 10 µM

| Compound | Non Amp - AMP (POC) 10 uM [POC] |
| --- | --- |
| N#C/C(=C\c1ccc(-c2cc(Cl)ccc2Cl)o1)C(=O)Nc1cccc2ncccc12 [AGK 2] | 19.96 |

same assay, conditions: 10 uM, 48 hrs; average relative cell viability (vs 1% DMSO) of non-amplified cells (OVSAHO, CAOV3) minus that of MYC-HSF1 amplified cells (OVCAR8, OVCAR4); positive = greater response in amplified cells; listed as GSK-J4 (hydrochloride), 10 µM

| Compound | Non Amp - AMP (POC) 10 uM [POC] |
| --- | --- |
| CCOC(=O)CCNc1cc(N2CCc3ccccc3CC2)nc(-c2ccccn2)n1.Cl [GSK J4 HCl] | −13.06 |

same assay, conditions: 10 uM, 48 hrs; average relative cell viability (vs 1% DMSO) of non-amplified cells (OVSAHO, CAOV3) minus that of MYC-HSF1 amplified cells (OVCAR8, OVCAR4); positive = greater response in amplified cells; listed as IOX 1, 10 µM

| Compound | Non Amp - AMP (POC) 10 uM [POC] |
| --- | --- |
| O=C(O)c1ccc(O)c2ncccc12 [IOX1] | 2.198 |

same assay, conditions: 10 uM, 48 hrs; average relative cell viability (vs 1% DMSO) of non-amplified cells (OVSAHO, CAOV3) minus that of MYC-HSF1 amplified cells (OVCAR8, OVCAR4); positive = greater response in amplified cells; listed as MC1568, 10 µM

| Compound | Non Amp - AMP (POC) 10 uM [POC] |
| --- | --- |
| Cn1c(/C=C/C(=O)NO)ccc1/C=C/C(=O)c1cccc(F)c1 [MC 1568] | −17.78 |

same assay, conditions: 10 uM, 48 hrs; average relative cell viability (vs 1% DMSO) of non-amplified cells (OVSAHO, CAOV3) minus that of MYC-HSF1 amplified cells (OVCAR8, OVCAR4); positive = greater response in amplified cells; listed as PCI-24781 (CRA-024781), 10 µM

| Compound | Non Amp - AMP (POC) 10 uM [POC] |
| --- | --- |
| CN(C)Cc1c(C(=O)NCCOc2ccc(C(=O)NO)cc2)oc2ccccc12 [PCI 24781] | 28.7 |

same assay, conditions: 10 uM, 48 hrs; average relative cell viability (vs 1% DMSO) of non-amplified cells (OVSAHO, CAOV3) minus that of MYC-HSF1 amplified cells (OVCAR8, OVCAR4); positive = greater response in amplified cells; listed as UF 010, 10 µM

| Compound | Non Amp - AMP (POC) 10 uM [POC] |
| --- | --- |
| CCCCNNC(=O)c1ccc(Br)cc1 [UF010] | 21.86 |

same assay, conditions: listed as PCI-34051, 10 µM

| Compound | Non Amp - AMP (POC) 10 uM [POC] |
| --- | --- |
| COc1ccc(Cn2ccc3ccc(C(=O)NO)cc32)cc1 [PCI 34051] | −22.68 |
